Experimental data from article PMC9456400 (International Journal of Molecular Sciences, 2022).

How the values were obtained:
Huh-7 cells [1] = assay: MTT cell viability assay; format: cell-based; conditions: Homo sapiens; Huh-7, MTT
Method: Cell viability effects of lorlatinib were determined using the colorimetric MTT (3-4,5-dimethylthiazol-2-yl-2,5-diphenyl-tetrazolium bromide) reduction assay. Dose–response curves to graded concentrations of lorlatinib were plotted as a percentage of the control cell absorbance, which was obtained from control cells containing the vehicle (DMSO v/v) processed simultaneously. For each treatment, cell viability was evaluated using the following equation: (OD570 of the treated sample/OD570 of the untreated sample) × 100.

Huh-7 cells [2] = assay: UHPLC-ESI-QTOF-MS/MS lipidomics; format: cell-based, human
From the text: We then questioned whether lorlatinib used at concentrations efficacious against ALK-rearranged lung cancer cells but non-toxic to ALK-negative cells could promote substantial lipidome changes in Huh-7 cells (Figure 1B; Table 1). Accordingly, […], and the lipidome was characterized in a semi-targeted approach using a UHPLC-ESI-QTOF-MS/MS method, in which we matched mass spectra with commercial standards (SPLAH mix), databases such as METLIN-PCDL and Lipid MAPS (accessed on 1 July 2022), as well as corroboration of tentative lipid species upon obtaining their MS/MS spectrum. Representative chromatograms of lipidomic analyses in Huh-7 cells can be found in Figure S1.
Lipid extraction, preparation of external calibration curves, and quality control approaches were carried out as described. Samples (2 μL) were injected directly into a 1290 Infinity UHPLC system coupled with a dual Agilent jet stream ESI source to a 6550 QTOF-MS instrument (Agilent Technologies, Santa Clara, CA, USA). UHPLC-ESI-QTOF-MS conditions, data analysis and indirect quantification of selected lipid species using MassHunter Qualitative Analysis B.07.00 software (Agilent Technologies), and corroboration of the tentative characterization of compound match entities using the Lipid Maps database (www.lipidmaps.org, accessed on 1 July 2022) and targeted MS/MS acquisition on LC-QTOF-MS instrument, have been previously described in detail.
Differentially expressed lipid species from untargeted lipidomic data were analyzed by generating volcano plots indicating statistical significance versus magnitude of fold-change for each lipid species (cutoff of Benjamini–Hochberg corrected p-value < 0.05 and log2 fold-change > 1 or […]).

[3] = Huh-7 cells, SBN 100 µmol/L, lorlatinib 1 µmol/L, median

IC50 (Huh-7 cells [1]): 22 ± 5 µM
Structure (SMILES): C[C@H]1Oc2cc(cnc2N)-c2c(nn(C)c2C#N)CN(C)C(=O)c2ccc(F)cc21 [lorlatinib, (10R)-7-amino-12-fluoro-2,10,16-trimethyl-15-oxo-10,15,16,17-tetrahydro-2H-8,4-(metheno)pyrazolo [4,3-h][2,5,11]-benzoxadiazacyclotetradecine-3-carbonitrile]
Change of lipid species, single agent (Huh-7 cells [2]; Huh-7, 48 h, lorlatinib 1 μmol/L, silibinin 100 μmol/L): significantly increase several species of ChoE, numerous molecular species of long-chain TG, and several DG, LPC, and PC species | Relative concentration of ChoE 16:0 (Huh-7 cells [2]; [3]): 11.335 µmol/mg protein | Relative concentration of ChoE 16:1 (Huh-7 cells [2]; [3]): 25.820 µmol/mg protein | Relative concentration of ChoE 17:0 (Huh-7 cells [2]; [3]): 2.170 µmol/mg protein | Relative concentration of ChoE 17:1 (Huh-7 cells [2]; [3]): 5.670 µmol/mg protein | Relative concentration of ChoE 18:0 (Huh-7 cells [2]; [3]): 4.365 µmol/mg protein | Relative concentration of ChoE 18:2 (Huh-7 cells [2]; [3]): 33.284 µmol/mg protein | Relative concentration of ChoE 18:3 (Huh-7 cells [2]; [3]): 12.818 µmol/mg protein | Relative concentration of ChoE 20:2 (Huh-7 cells [2]; [3]): 6.459 µmol/mg protein | Relative concentration of ChoE 20:3 (Huh-7 cells [2]; [3]): 42.167 µmol/mg protein | Relative concentration of ChoE 20:4 (Huh-7 cells [2]; [3]): 107.967 µmol/mg protein | Relative concentration of ChoE 20:5 (Huh-7 cells [2]; [3]): 68.788 µmol/mg protein | Relative concentration of ChoE 22:4 (Huh-7 cells [2]; [3]): 27.538 µmol/mg protein | Relative concentration of ChoE 22:5 (Huh-7 cells [2]; [3]): 59.058 µmol/mg protein | Relative concentration of DG 34:1 (Huh-7 cells [2]; [3]): 16.654 µmol/mg protein | Relative concentration of DG 34:2 (Huh-7 cells [2]; [3]): 17.722 µmol/mg protein | Relative concentration of DG 34:3 (Huh-7 cells [2]; [3]): 2.474 µmol/mg protein | Relative concentration of DG 36:0 (Huh-7 cells [2]; [3]): 2.250 µmol/mg protein | Relative concentration of DG 36:1 (Huh-7 cells [2]; [3]): 8.885 µmol/mg protein | Relative concentration of DG 36:2 (Huh-7 cells [2]; [3]): 20.022 µmol/mg protein | Relative concentration of DG 36:3 (Huh-7 cells [2]; [3]): 2.186 µmol/mg protein | Relative concentration of DG 36:4 (Huh-7 cells [2]; [3]): 4.172 µmol/mg protein | Relative concentration of DG 40:4 (Huh-7 cells [2]; [3]): 9.158 µmol/mg protein | Relative concentration of LPC 15:0 (Huh-7 cells [2]; [3]): 0.094 µmol/mg protein | Relative concentration of LPC 16:0 (Huh-7 cells [2]; [3]): 3.165 µmol/mg protein | Relative concentration of LPC 16: e (Huh-7 cells [2]; [3]): 0.023 µmol/mg protein | Relative concentration of LPC 18:0 (Huh-7 cells [2]; [3]): 1.911 µmol/mg protein | Relative concentration of LPC 18:0e (Huh-7 cells [2]; [3]): 0.014 µmol/mg protein | Relative concentration of LPC 18:1 (Huh-7 cells [2]; [3]): 1.630 µmol/mg protein | Relative concentration of LPC 18:2 (Huh-7 cells [2]; [3]): 0.188 µmol/mg protein | Relative concentration of LPC 20:0 (Huh-7 cells [2]; [3]): 0.047 µmol/mg protein | Relative concentration of LPC 20:3 (Huh-7 cells [2]; [3]): 0.080 µmol/mg protein | Relative concentration of PC 30:0 (Huh-7 cells [2]; [3]): 6.654 µmol/mg protein | Relative concentration of PC 31:0 (Huh-7 cells [2]; [3]): 3.243 µmol/mg protein | Relative concentration of PC 32:0 (Huh-7 cells [2]; [3]): 20.672 µmol/mg protein | Relative concentration of PC 32:1 (Huh-7 cells [2]; [3]): 56.675 µmol/mg protein | Relative concentration of PC 32:1e (Huh-7 cells [2]; [3]): 0.780 µmol/mg protein | Relative concentration of PC 32:2 (Huh-7 cells [2]; [3]): 7.800 µmol/mg protein | Relative concentration of PC 33:0 (Huh-7 cells [2]; [3]): 3.109 µmol/mg protein | Relative concentration of PC 33:1 (Huh-7 cells [2]; [3]): 12.338 µmol/mg protein | Relative concentration of PC 33:2 (Huh-7 cells [2]; [3]): 1.113 µmol/mg protein | Relative concentration of PC 34:0 (Huh-7 cells [2]; [3]): 5.917 µmol/mg protein | Relative concentration of PC 34:1 (Huh-7 cells [2]; [3]): 93.696 µmol/mg protein | Relative concentration of PC 34:1e (Huh-7 cells [2]; [3]): 0.856 µmol/mg protein | Relative concentration of PC 34:2 (Huh-7 cells [2]; [3]): 49.219 µmol/mg protein | Relative concentration of PC 34:2e (Huh-7 cells [2]; [3]): 0.709 µmol/mg protein | Relative concentration of PC 34:3 (Huh-7 cells [2]; [3]): 5.578 µmol/mg protein | Relative concentration of PC 34:4 (Huh-7 cells [2]; [3]): 0.930 µmol/mg protein | Relative concentration of PC 35:1 (Huh-7 cells [2]; [3]): 6.392 µmol/mg protein | Relative concentration of PC 35:2 (Huh-7 cells [2]; [3]): 6.219 µmol/mg protein | Relative concentration of PC 35:4 (Huh-7 cells [2]; [3]): 1.817 µmol/mg protein | Relative concentration of PC 36:0 (Huh-7 cells [2]; [3]): 0.209 µmol/mg protein | Relative concentration of PC 36:1 (Huh-7 cells [2]; [3]): 24.222 µmol/mg protein | Relative concentration of PC 36:2 (Huh-7 cells [2]; [3]): 46.840 µmol/mg protein | Relative concentration of PC 36:2e (Huh-7 cells [2]; [3]): 0.101 µmol/mg protein | Relative concentration of PC 36:3 (Huh-7 cells [2]; [3]): 20.945 µmol/mg protein | Relative concentration of PC 36:4 (Huh-7 cells [2]; [3]): 26.422 µmol/mg protein | Relative concentration of PC 36:5 (Huh-7 cells [2]; [3]): 6.790 µmol/mg protein | Relative concentration of PC 36:5e (Huh-7 cells [2]; [3]): 0.749 µmol/mg protein | Relative concentration of PC 38:2 (Huh-7 cells [2]; [3]): 1.747 µmol/mg protein | Relative concentration of PC 38:3 (Huh-7 cells [2]; [3]): 2.875 µmol/mg protein
